#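 Cultured in 96-well plates, cells were exposed to test compound for 48 hours across five concentrations. Abbreviation: GI50, concentration required for 50% inhibition of growth. Definition used: TGI = concentration required for complete inhibition of growth.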
# Experiments:
# Assay in all cases: NCI tumour cell line growth inhibition, 48 h
# [1] = tested on: A498 renal
# [2] = tested on: A549 NSCLC
# [3] = tested on: ACHN renal
# [4] = tested on: BT-549 breast
# [5] = tested on: COLO 205 colon
# [6] = tested on: DU-145 prostate
# [7] = tested on: EKVX NSCLC
# [8] = tested on: HCC-2998 colon
# [9] = tested on: HCT-116 colon
# [10] = tested on: HCT-15 colon
# [11] = tested on: HL-60(TB) leukemia
# [12] = tested on: HS 578T breast
# [13] = tested on: IGROV1 ovarian
# [14] = tested on: K-562 leukemia
# [15] = tested on: KM12 colon
# [16] = tested on: LOX IMVI melanoma
# [17] = tested on: M14 melanoma
# [18] = tested on: MALME-3M melanoma
# [19] = tested on: MCF7 breast
# [20] = tested on: MDA-MB-231 breast
# [21] = tested on: MDA-MB-435
# [22] = tested on: MDA-MB-468 breast
# [23] = tested on: MOLT-4 leukemia
# [24] = tested on: NCI-H460 lung
# [25] = tested on: NCI-H522 lung
# [26] = tested on: OVCAR-3 ovarian
# [27] = tested on: OVCAR-4 ovarian
# [28] = tested on: OVCAR-5 ovarian
# [29] = tested on: OVCAR-8 ovarian
# [30] = tested on: PC-3 prostate
# [31] = tested on: RPMI-8226 leukemia
# [32] = tested on: RXF 393 renal
# [33] = tested on: SF-268 CNS
# [34] = tested on: SF-295 CNS
# [35] = tested on: SF-539 CNS
# [36] = tested on: SK-MEL-2 melanoma
# [37] = tested on: SK-MEL-28 melanoma
# [38] = tested on: SK-MEL-5 melanoma
# [39] = tested on: SN12C renal
# [40] = tested on: SNB-19 CNS
# [41] = tested on: SNB-75 CNS
# [42] = tested on: SW-620 colon
# [43] = tested on: T-47D breast
# [44] = tested on: TK-10 renal
# [45] = tested on: U251 CNS
# [46] = tested on: UACC-62 melanoma
# [47] = tested on: UO-31 renal
compound,measurement,setting,value
COC[C@@H](CC(C)C)N=C1NC(=O)/C(=C/c2ccc3ncsc3c2)N1,GI50,[1],1.93 µM
same,TGI,[1],7.93 µM
same,GI50,[2],2.03 µM
same,TGI,[2],> 100 µM
same,GI50,[3],2.46 µM
same,TGI,[3],11.4 µM
same,GI50,[4],1.56 µM
same,TGI,[4],7.59 µM
same,GI50,[5],1.94 µM
same,TGI,[5],6.28 µM
same,GI50,[6],3.06 µM
same,TGI,[6],> 100 µM
same,GI50,[7],3.27 µM
same,TGI,[7],75.8 µM
same,GI50,[8],4.03 µM
same,TGI,[8],56.4 µM
same,GI50,[9],1.45 µM
same,TGI,[9],66.4 µM
same,GI50,[10],2.66 µM
same,TGI,[10],> 100 µM
same,GI50,[11],3.11 µM
same,TGI,[11],8.36 µM
same,GI50,[12],2.26 µM
same,TGI,[12],8.33 µM
same,GI50,[13],2.42 µM
same,TGI,[13],22 µM
same,GI50,[14],2.8 µM
same,TGI,[14],> 100 µM
same,GI50,[15],3.19 µM
same,TGI,[15],34.5 µM
same,GI50,[16],2.57 µM
same,TGI,[16],> 100 µM
same,GI50,[17],3.88 µM
same,TGI,[17],22 µM
same,GI50,[18],2.53 µM
same,TGI,[18],7.29 µM
same,GI50,[19],2.64 µM
same,TGI,[19],> 100 µM
same,GI50,[20],3.65 µM
same,TGI,[20],> 100 µM
same,GI50,[21],3.56 µM
same,TGI,[21],18.7 µM
same,GI50,[22],1.98 µM
same,TGI,[22],10.8 µM
same,GI50,[23],2.68 µM
same,TGI,[23],15.4 µM
same,GI50,[24],3.08 µM
same,TGI,[24],> 100 µM
same,GI50,[25],1.16 µM
same,TGI,[25],4.89 µM
same,GI50,[26],1.22 µM
same,TGI,[26],4.32 µM
same,GI50,[27],6.14 µM
same,TGI,[27],79.3 µM
same,GI50,[28],3.04 µM
same,TGI,[28],> 100 µM
same,GI50,[29],2.88 µM
same,TGI,[29],> 100 µM
same,GI50,[30],3.9 µM
same,TGI,[30],52.7 µM
same,GI50,[31],2.8 µM
same,TGI,[31],9.52 µM
same,GI50,[32],1.91 µM
same,TGI,[32],4.96 µM
same,GI50,[33],3.41 µM
same,TGI,[33],19 µM
same,GI50,[34],3.46 µM
same,TGI,[34],> 100 µM
same,GI50,[35],1.04 µM
same,TGI,[35],4.54 µM
same,GI50,[36],1.88 µM
same,TGI,[36],4.32 µM
same,GI50,[37],2.69 µM
same,TGI,[37],8.69 µM
same,GI50,[38],2.8 µM
same,TGI,[38],8.85 µM
same,GI50,[39],2.71 µM
same,TGI,[39],30 µM
same,GI50,[40],1.76 µM
same,TGI,[40],48.3 µM
same,GI50,[41],1.04 µM
same,TGI,[41],6.75 µM
same,GI50,[42],2.14 µM
same,TGI,[42],20 µM
same,GI50,[43],1.96 µM
same,TGI,[43],9.01 µM
same,GI50,[44],2.95 µM
same,TGI,[44],> 100 µM
same,GI50,[45],2.58 µM
same,TGI,[45],> 100 µM
same,GI50,[46],2.19 µM
same,TGI,[46],8.63 µM
same,GI50,[47],2.36 µM
same,TGI,[47],6.7 µM

# — PubChem BioAssay (NCI)
